Data: US20240409585A1, “MACROCYCLIC IMMUNOMODULATORS” (priority 2021, published 2024)
Where two headings read alike, the source gives them in different places. Bridge positions count the residues as written; N and C are the ends. Square brackets hold non-standard residues; d marks the D form. Peptide text beside a SMILES is read from it. * marks the point of attachment. ξ: configuration not given here. Phe(4-COOH) = N[C@@H](Cc1ccc(C(=O)O)cc1)C(=O)O; Bip = N[C@@H](Cc1ccc(-c2ccccc2)cc1)C(=O)O; Phe(3-OMe) = COc1cccc(C[C@H](N)C(=O)O)c1; Phe(3-Me) = Cc1cccc(C[C@H](N)C(=O)O)c1; Val(3-OH) = CC(C)(O)[C@H](N)C(=O)O; 3Pal = N[C@@H](Cc1cccnc1)C(=O)O; 4Pal = N[C@@H](Cc1ccncc1)C(=O)O; Cha = N[C@@H](CC1CCCCC1)C(=O)O; Cit = NC(=O)NCCC[C@H](N)C(=O)O; Ile(3ξ) = CCC(C)[C@H](N)C(=O)O; dChg = N[C@@H](C(=O)O)C1CCCCC1; Thr(3ξ) = CC(O)[C@H](N)C(=O)O; dNva = CCC[C@@H](N)C(=O)O; Carboxymethyl = O=C(O)C*; NMeA = CN[C@@H](C)C(=O)O; Orn = NCCC[C@H](N)C(=O)O; Dab = NCC[C@H](N)C(=O)O; Dap = NC[C@H](N)C(=O)O; ξL = CC(C)CC(N)C(=O)O

Molecular target: T1, PE-labeled human PD-L1-Ig binding to Jurkat cell line over-expressing human PD-1 (Jurkat-PD-1) (Homo sapiens, UniProt Q15116)
T1 construct: expressed in transfected cells; host or cells: Jurkat
T1 sequence (Q15116 25-288): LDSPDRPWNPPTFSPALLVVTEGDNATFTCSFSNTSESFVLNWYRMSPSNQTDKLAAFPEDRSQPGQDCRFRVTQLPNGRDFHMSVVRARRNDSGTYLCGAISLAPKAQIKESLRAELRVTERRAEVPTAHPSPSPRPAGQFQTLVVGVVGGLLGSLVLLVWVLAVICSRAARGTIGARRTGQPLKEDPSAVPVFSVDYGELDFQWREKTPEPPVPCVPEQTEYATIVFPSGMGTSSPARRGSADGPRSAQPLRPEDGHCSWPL
Assay: Jurkat-PD-1 Cell Binding High-Content Screening Assay (CBA): Method 1
Conditions: Jurkat-hPD-1 cells, PE-labeled PD-L1-Ig 20 nM final

[1] = read-out: Jurkat HPDL1 PD1 IC50 (uM) (Method 1)

| SMILES | IC50 [1] [µM] | IC50 (Jurkat HPDL1 PD1 IC50 (uM) (Method 1)) [µM] |
| --- | --- | --- |
| CC[C@H](C)[C@@H]1NC(=O)[C@H](Cc2ccc(-c3ccccc3)cc2)NC(=O)[C@H](C(C)C)NC(=O)[C@H](Cc2cccc(C)c2)NC(=O)[C@H](CC(=O)O)NC(=O)[C@H](Cc2ccncc2)NC(=O)[C@H](CN)NC(=O)CSC[C@@H](C(=O)N[C@@H](C)C(N)=O)NC(=O)[C@H]([C@@H](C)O)NC(=O)[C@H](C(C)C)NC(=O)[C@H](CC(C)C)NC(=O)[C@H](CCN)NC(=O)[C@@H](CC(C)C)NC(=O)[C@H](C)N(C)C1=O [Compound 1544] ({CH2CO}-[Dap][4Pal]D[Phe(3-Me)]V[Bip]I[NMeA][dL][Dab]LVTCA-NH2; thioether N-14) | 0.01 | – |
| CC(C)C[C@@H]1NC(=O)[C@H](Cc2c[nH]c3ccccc23)NC(=O)[C@H](CC(=O)O)NC(=O)[C@H](Cc2ccc(O)cc2)NC(=O)[C@H](Cc2ccccc2)NC(=O)CSC[C@@H](C(=O)N[C@@H](C)C(N)=O)NC(=O)[C@H](CO)NC(=O)[C@H](CCN)NC(=O)[C@H](CC(C)C)NC(=O)[C@H](CC(N)=O)NC(=O)[C@@H](C)NC(=O)[C@H](C)N(C)C(=O)[C@H](C(C)C)NC(=O)[C@H](Cc2ccc(-c3ccccc3)cc2)NC1=O [Compound 1531] ({CH2CO}-FYDWL[Bip]V[NMeA][dA]NL[Dab]SCA-NH2; thioether N-14) | 0.11 | – |
| CC[C@H](C)[C@@H]1NC(=O)[C@H](Cc2ccc(-c3ccccc3)cc2)NC(=O)[C@H](C(C)C)NC(=O)[C@H](Cc2cccc(C)c2)NC(=O)[C@H](CC(=O)O)NC(=O)[C@H](Cc2ccc(O)cc2)NC(=O)[C@H](CC(N)=O)NC(=O)CSC[C@@H](C(=O)N[C@H](C)C(N)=O)NC(=O)[C@H]([C@@H](C)O)NC(=O)[C@H](C(C)(C)O)NC(=O)[C@H](CC(C)C)NC(=O)[C@H](CCN)NC(=O)[C@@H](CC(C)C)NC(=O)[C@H](C)N(C)C1=O [Compound 1685] ({CH2CO}-NYD[Phe(3-Me)]V[Bip]I[NMeA][dL][Dab]L[Val(3-OH)]TC[dA]-NH2; thioether N-14) | 0.1 | – |
| CC(C)C[C@H]1NC(=O)[C@H](C)N(C)C(=O)[C@H](CCCNC(N)=O)NC(=O)[C@H](Cc2ccc(-c3ccccc3)cc2)NC(=O)[C@H](C(C)C)NC(=O)[C@H](Cc2c[nH]c3ccccc23)NC(=O)[C@H](CC(=O)O)NC(=O)[C@H](Cc2ccc(O)cc2)NC(=O)[C@H](CC(N)=O)NC(=O)CSC[C@@H](C(=O)N[C@@H](C)C(N)=O)NC(=O)[C@H]([C@@H](C)O)NC(=O)[C@H](C(C)C)NC(=O)[C@H](CC2CCCCC2)NC(=O)[C@H](CCCNC(=N)N)NC1=O [Compound 1304] ({CH2CO}-NYDWV[Bip][Cit][NMeA][dL]R[Cha]VTCA-NH2; thioether N-14) | 0.02 | – |
| CC(C)C[C@@H]1NC(=O)[C@H](Cc2c[nH]c3ccccc23)NC(=O)[C@H](CC(=O)O)NC(=O)[C@H](Cc2ccc(O)cc2)NC(=O)[C@H](Cc2ccccc2)NC(=O)CSC[C@@H](C(=O)N[C@@H](C)C(N)=O)NC(=O)[C@H](CO)NC(=O)[C@H](C(C)C)NC(=O)[C@H](CC(C)C)NC(=O)[C@H](CCN)NC(=O)[C@@H](C)NC(=O)[C@H](C)N(C)C(=O)[C@H](CCCNC(=N)N)NC(=O)[C@H](Cc2ccc(-c3ccccc3)cc2)NC1=O [Compound 1751] ({CH2CO}-FYDWL[Bip]R[NMeA][dA][Dab]LVSCA-NH2; thioether N-14) | 0.03 | – |
| Cc1cccc(C[C@@H]2NC(=O)[C@H](CC(=O)O)NC(=O)[C@H](Cc3ccc(OCC(=O)O)cc3)NC(=O)[C@H](CN)NC(=O)CSC[C@@H](C(=O)N[C@@H](C)C(N)=O)NC(=O)[C@H](CO)NC(=O)[C@H](Cc3ccccc3)NC(=O)[C@H](CC(C)C)NC(=O)[C@H](CC(N)=O)NC(=O)[C@@H](CC(C)C)NC(=O)[C@H](C)N(C)C(=O)[C@H](Cc3ccccc3)NC(=O)[C@H](Cc3ccc(-c4ccccc4)cc3)NC(=O)[C@H](CC(C)C)NC2=O)c1 [Compound 1586] ({CH2CO}-[Dap]Y(Carboxymethyl)D[Phe(3-Me)]L[Bip]F[NMeA][dL]NLFSCA-NH2; thioether N-14) | – | 0.54 |
| CC(C)C[C@H]1NC(=O)[C@H](C)N(C)C(=O)[C@H](C(C)C)NC(=O)[C@H](Cc2ccc(-c3ccccc3)cc2)NC(=O)[C@H](C(C)C)NC(=O)[C@H](Cc2c[nH]c3ccccc23)NC(=O)[C@H](CC(=O)O)NC(=O)[C@H](Cc2ccc(O)cc2)NC(=O)[C@H](Cc2ccc(OCC(=O)O)cc2)NC(=O)CSC[C@@H](C(=O)N[C@@H](C)C(N)=O)NC(=O)[C@H]([C@@H](C)O)NC(=O)[C@H](C(C)C)NC(=O)[C@H](CC2CCCCC2)NC(=O)[C@H](CCN)NC1=O [Compound 1507] ({CH2CO}-Y(Carboxymethyl)YDWV[Bip]V[NMeA][dL][Dab][Cha]VTCA-NH2; thioether N-14) | 0.01 | – |
| CC(C)C[C@@H]1NC(=O)[C@H](CCCNC(=N)N)NC(=O)[C@@H](C2CCCCC2)NC(=O)[C@H](C)N(C)C(=O)[C@H](CCCNC(=N)N)NC(=O)[C@H](Cc2ccc(-c3ccccc3)cc2)NC(=O)[C@H](C(C)C)NC(=O)[C@H](Cc2c[nH]c3ccccc23)NC(=O)[C@H](CC(=O)O)NC(=O)[C@H](Cc2ccc(O)cc2)NC(=O)[C@H](Cc2ccccc2)NC(=O)CSC[C@@H](C(=O)N[C@@H](C)C(N)=O)NC(=O)[C@H]([C@@H](C)O)NC(=O)[C@H](C(C)C)NC1=O [Compound 1061] ({CH2CO}-FYDWV[Bip]R[NMeA][dChg]RLVTCA-NH2; thioether N-14) | 0.1 | – |
| CCC(C)[C@@H]1NC(=O)[C@H](Cc2ccc(-c3ccccc3)cc2)NC(=O)[C@H](C(C)C)NC(=O)[C@H](Cc2c[nH]c3ccccc23)NC(=O)[C@H](CC(=O)O)NC(=O)[C@H](Cc2ccc(OCC(=O)O)cc2)NC(=O)[C@H](C(C)O)NC(=O)CSC[C@@H](C(=O)N[C@@H](CCN)C(N)=O)NC(=O)[C@H](C(C)O)NC(=O)[C@H](C(C)C)NC(=O)[C@H](CC2CCCCC2)NC(=O)[C@H](CCN)NC(=O)C(CC(C)C)NC(=O)[C@H](C)N(C)C1=O (stereo partly drawn) [Compound 2114] ({CH2CO}-[Thr(3ξ)]Y(Carboxymethyl)DWV[Bip][Ile(3ξ)][NMeA][ξL][Dab][Cha]V[Thr(3ξ)]C[Dab]-NH2; thioether N-14) | 0.02 | – |
| CC(C)C[C@@H]1NC(=O)[C@H](CCCNC(=N)N)NC(=O)[C@@H](CC(C)C)NC(=O)[C@H](C)N(C)C(=O)[C@H](CCCNC(=N)N)NC(=O)[C@H](Cc2ccc(-c3ccccc3)cc2)NC(=O)[C@H](C(C)C)NC(=O)[C@H](Cc2c[nH]c3ccccc23)NC(=O)[C@H](CC(=O)O)NC(=O)[C@H](Cc2ccc(O)cc2)NC(=O)[C@H](Cc2cccnc2)NC(=O)CSC[C@@H](C(=O)N[C@@H](C)C(N)=O)NC(=O)[C@H]([C@@H](C)O)NC(=O)[C@H](C(C)C)NC1=O [Compound 1049] ({CH2CO}-[3Pal]YDWV[Bip]R[NMeA][dL]RLVTCA-NH2; thioether N-14) | 0.01 | – |
| COc1cccc(C[C@@H]2NC(=O)[C@H](CC(=O)O)NC(=O)[C@H](Cc3ccc(C(=O)O)cc3)NC(=O)[C@H](CN)NC(=O)CSC[C@@H](C(=O)N[C@@H](C)C(N)=O)NC(=O)[C@H]([C@@H](C)O)NC(=O)[C@H](C(C)C)NC(=O)[C@H](CC(C)C)NC(=O)[C@H](CCN)NC(=O)[C@@H](CC(C)C)NC(=O)[C@H](C)N(C)C(=O)[C@H](CCCNC(=N)N)NC(=O)[C@H](Cc3ccc(-c4ccccc4)cc3)NC(=O)[C@H](C(C)C)NC2=O)c1 [Compound 1460] ({CH2CO}-[Dap][Phe(4-COOH)]D[Phe(3-OMe)]V[Bip]R[NMeA][dL][Dab]LVTCA-NH2; thioether N-14) | 0.02 | – |
| CC(C)C[C@H]1NC(=O)[C@H](C)N(C)C(=O)[C@H](C(C)C)NC(=O)[C@H](Cc2ccc(-c3ccccc3)cc2)NC(=O)[C@H](C(C)C)NC(=O)[C@H](Cc2c[nH]c3ccccc23)NC(=O)[C@H](CC(=O)O)NC(=O)[C@H](Cc2ccc(O)cc2)NC(=O)[C@H](Cc2ccc(OCC(=O)O)cc2)NC(=O)CSC[C@@H](C(=O)N[C@@H](C)C(N)=O)NC(=O)[C@H]([C@@H](C)O)NC(=O)[C@H](C(C)C)NC(=O)[C@H](CC2CCCCC2)NC(=O)[C@H](CCCNC(=N)N)NC1=O [Compound 1486] ({CH2CO}-Y(Carboxymethyl)YDWV[Bip]V[NMeA][dL]R[Cha]VTCA-NH2; thioether N-14) | 0.62 | – |
| CC(C)C[C@@H]1NC(=O)[C@H](CCCNC(=N)N)NC(=O)[C@@H](CC(C)C)NC(=O)[C@H](C)N(C)C(=O)[C@H](CCCN)NC(=O)[C@H](Cc2ccc(-c3ccccc3)cc2)NC(=O)[C@H](C(C)C)NC(=O)[C@H](Cc2c[nH]c3ccccc23)NC(=O)[C@H](CC(=O)O)NC(=O)[C@H](Cc2ccc(O)cc2)NC(=O)[C@H](CC(N)=O)NC(=O)CSC[C@@H](C(=O)N[C@@H](C)C(N)=O)NC(=O)[C@H]([C@@H](C)O)NC(=O)[C@H](C(C)C)NC1=O [Compound 1288] ({CH2CO}-NYDWV[Bip][Orn][NMeA][dL]RLVTCA-NH2; thioether N-14) | 0.08 | – |
| CCC[C@H]1NC(=O)[C@H](C)N(C)C(=O)[C@H](CCCNC(=N)N)NC(=O)[C@H](Cc2ccc(-c3ccccc3)cc2)NC(=O)[C@H](C(C)C)NC(=O)[C@H](Cc2c[nH]c3ccccc23)NC(=O)[C@H](CC(=O)O)NC(=O)[C@H](Cc2ccc(O)cc2)NC(=O)[C@H](Cc2ccccc2)NC(=O)CSC[C@@H](C(=O)N[C@@H](C)C(N)=O)NC(=O)[C@H]([C@@H](C)O)NC(=O)[C@H](C(C)C)NC(=O)[C@H](CC(C)C)NC(=O)[C@H](CCCNC(=N)N)NC1=O [Compound 1064] ({CH2CO}-FYDWV[Bip]R[NMeA][dNva]RLVTCA-NH2; thioether N-14) | 0.1 | – |
| CC(C)C[C@@H]1NC(=O)[C@H](Cc2c[nH]c3ccccc23)NC(=O)[C@H](CC(=O)O)NC(=O)[C@H](Cc2ccc(O)cc2)NC(=O)[C@H](Cc2ccccc2)NC(=O)CSC[C@@H](C(=O)N[C@@H](C)C(N)=O)NC(=O)[C@H](CO)NC(=O)[C@H](C(C)C)NC(=O)[C@H](CC(C)C)NC(=O)[C@H](CC(N)=O)NC(=O)[C@@H](CCC(=O)O)NC(=O)[C@H](C)N(C)C(=O)[C@H](C(C)C)NC(=O)[C@H](Cc2ccc(-c3ccccc3)cc2)NC1=O [Compound 1820] ({CH2CO}-FYDWL[Bip]V[NMeA][dE]NLVSCA-NH2; thioether N-14) | 0.48 | – |
